Laboratory results as given in US7056900B2, “Disaccharide derivatives for treating hyperglycaemia” (Sudzucker Aktiengesellschaft Mannheim Ochsenfurt, priority 1997, dated 2006).
“Also recorded” adds a separate entry of the source. Like-named read-outs stand apart in the source and are kept apart here.

How the values were obtained:
Assay type in all cases: biochemical, hog
sucrase/isomaltase (SI) [1] = biological target: T1, sucrase/isomaltase (SI) (Sus scrofa, UniProt P56729); test: Cleavage on incubation (24 hours) with SI; details: 37° C.
T1 sequence (P56729 with tags, fused parts or gaps): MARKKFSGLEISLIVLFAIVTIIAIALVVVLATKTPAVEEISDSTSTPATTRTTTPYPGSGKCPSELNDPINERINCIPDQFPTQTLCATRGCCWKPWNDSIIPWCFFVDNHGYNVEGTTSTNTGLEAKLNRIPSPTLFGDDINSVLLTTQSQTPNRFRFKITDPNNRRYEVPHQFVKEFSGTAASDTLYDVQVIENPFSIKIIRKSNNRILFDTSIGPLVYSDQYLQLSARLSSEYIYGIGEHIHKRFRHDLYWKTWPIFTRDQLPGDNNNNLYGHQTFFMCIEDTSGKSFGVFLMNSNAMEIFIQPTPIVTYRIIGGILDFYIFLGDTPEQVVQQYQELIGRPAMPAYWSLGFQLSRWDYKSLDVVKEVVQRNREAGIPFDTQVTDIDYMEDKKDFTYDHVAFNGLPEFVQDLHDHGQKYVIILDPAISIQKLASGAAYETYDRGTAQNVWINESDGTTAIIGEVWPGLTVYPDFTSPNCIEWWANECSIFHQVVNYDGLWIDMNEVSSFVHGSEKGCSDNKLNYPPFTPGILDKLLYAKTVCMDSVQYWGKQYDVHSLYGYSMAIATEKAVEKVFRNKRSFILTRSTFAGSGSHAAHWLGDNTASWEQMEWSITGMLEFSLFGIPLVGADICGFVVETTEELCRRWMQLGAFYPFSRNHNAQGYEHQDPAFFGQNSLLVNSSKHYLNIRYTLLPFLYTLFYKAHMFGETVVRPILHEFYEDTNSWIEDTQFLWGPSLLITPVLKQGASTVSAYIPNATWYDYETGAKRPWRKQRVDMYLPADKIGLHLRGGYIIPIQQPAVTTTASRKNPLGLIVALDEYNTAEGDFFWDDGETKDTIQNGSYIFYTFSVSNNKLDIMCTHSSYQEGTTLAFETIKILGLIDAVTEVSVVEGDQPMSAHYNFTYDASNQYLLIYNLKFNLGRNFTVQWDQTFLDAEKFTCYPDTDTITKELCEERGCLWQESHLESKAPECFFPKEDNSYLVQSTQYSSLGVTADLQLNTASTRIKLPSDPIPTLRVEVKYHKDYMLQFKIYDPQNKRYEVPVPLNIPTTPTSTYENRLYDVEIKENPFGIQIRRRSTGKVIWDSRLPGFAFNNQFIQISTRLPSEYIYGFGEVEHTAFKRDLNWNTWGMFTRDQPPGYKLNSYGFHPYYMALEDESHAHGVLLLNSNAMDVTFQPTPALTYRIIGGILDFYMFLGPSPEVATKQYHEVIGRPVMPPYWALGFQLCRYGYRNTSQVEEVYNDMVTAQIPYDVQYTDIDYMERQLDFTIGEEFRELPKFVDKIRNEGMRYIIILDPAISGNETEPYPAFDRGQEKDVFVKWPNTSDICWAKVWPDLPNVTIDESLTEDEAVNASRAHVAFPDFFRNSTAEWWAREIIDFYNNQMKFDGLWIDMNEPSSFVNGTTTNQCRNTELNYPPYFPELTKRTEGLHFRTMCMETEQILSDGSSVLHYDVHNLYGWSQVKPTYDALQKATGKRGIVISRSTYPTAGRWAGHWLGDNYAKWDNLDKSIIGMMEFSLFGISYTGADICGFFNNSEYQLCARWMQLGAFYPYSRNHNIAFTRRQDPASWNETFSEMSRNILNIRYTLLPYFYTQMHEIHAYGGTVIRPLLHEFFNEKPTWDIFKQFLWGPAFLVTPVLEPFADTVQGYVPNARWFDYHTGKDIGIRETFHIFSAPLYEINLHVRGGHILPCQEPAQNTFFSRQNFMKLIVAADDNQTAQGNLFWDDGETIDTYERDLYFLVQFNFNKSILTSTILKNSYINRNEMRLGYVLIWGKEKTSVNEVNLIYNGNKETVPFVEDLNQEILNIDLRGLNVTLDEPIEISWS
Protocol: (§1) Sucrase/isomaltase (SI) and glucoamylase/maltase (GM) were isolated by papain digestion from hog small intestine mucosa and enriched by ammoniumsulfate precipitation. […] D) A study was first made as to what extent the inventive disaccharide derivatives and comparison substances, that is to say sucrose and maltose, were cleaved by SI or by GM during incubation for 24 hours. [table]

[2] = test system: glucoamylase/maltase (GM); test: Cleavage on incubation (24 hours) with GM; details: 37° C.
Protocol: as §1

[3] = test system: glucoamylase/maltase (GM); test: Inhibition of GM-catalyzed hydrolysis of maltose (GM/maltose), coupled HK/G6PDH optical test; details: for KM/Ki / inhibitor strength (in words) / Ki: GM/maltose; for Ki: secondary Lineweaver-Burk plots
Protocol: (§2) The maltase activity was studied using the substrate maltose. Sucrase/isomaltase (SI) and glucoamylase/maltase (GM) were isolated by papain digestion from hog small intestine mucosa and enriched by ammoniumsulfate precipitation. […] B) In the methods described hereinafter for determining the enzyme activity of sucrase/isomaltase and glucoamylase/maltase under the influence of the substances tested, the amount of glucose or fructose released was determined as measured parameter. This took place in an enzymatic optical test using hexokinase (HK) and glucose-6-phosphate dehydrogenase (G6PDH) as a coupled detection system (Beutler, H.-O.; in: Methods of Enzymatic Analysis; Bergmeyer, H. U.; Bergmeyer, […] edition; Vol. […] The measurement was made at 37° C. and a pH of 7.0. The table below reports the composition of the assays necessary for the individual tests. In individual tests, the semimicro assay was used, but this was reduced in some cases to a micro assay. […] C) Before the inhibitor strengths were determined, for each enzyme-substrate combination basic kinetics were established in which not only the Michaelis-Menten constant (KM [mmol/l]) but also the maximum velocity (Vmax [μmol/mLmin]) were determined. […] The level of the inhibitor concentrations used depended on the strength of the resulting inhibition. For each of the enzyme-substrate combinations, 3 to 4 sets of kinetics at different inhibitor concentrations were established. The inhibitor constants Ki and Kii were, unless stated otherwise, determined from secondary Lineweaver-Burk plots.

sucrase/isomaltase (SI) [4] = biological target: T1, sucrase/isomaltase (SI); test: Inhibition of SI-catalyzed hydrolysis of isomaltose (SI/isomaltose), coupled HK/G6PDH optical test; design: isolated by papain digestion from hog small intestine mucosa and enriched by ammoniumsulfate precipitation; from tissue; host or cells: hog small intestine mucosa; key to Type (of inhibition): K means competitive inhibition; NK means noncompetitive inhibition; UK means uncompetitive inhibition; details: for KM/Ki / Type (of inhibition) / inhibitor strength (in words) / Ki: SI/isomaltose; for Ki: secondary Lineweaver-Burk plots
Source text: (§3) A) The activity of the SI enzyme complex was studied using three different substrates, that is to say sucrose, maltose and isomaltose.
The isomaltase activity was studied using the substrate isomaltose.
(§4) Sucrase/isomaltase (SI) and glucoamylase/maltase (GM) were isolated by papain digestion from hog small intestine mucosa and enriched by ammoniumsulfate precipitation. The enzymes were separated into isolated sucrase/isomaltase (SI) and glucoamylase/maltase (GM) via an ion exchanger (DEAE cellulose), and a following fine fractionation using gel filtration on a Superdex 200 column from Pharmacia.
(§5) B) In the methods described hereinafter for determining the enzyme activity of sucrase/isomaltase and glucoamylase/maltase under the influence of the substances tested, the amount of glucose or fructose released was determined as measured parameter. This took place in an enzymatic optical test using hexokinase (HK) and glucose-6-phosphate dehydrogenase (G6PDH) as a coupled detection system (Beutler, H.-O.; in: Methods of Enzymatic Analysis; Bergmeyer, H. U.; Bergmeyer, J.; Graβl, M. (editors); 3rd edition; Vol. VI, 2–10). The measurement was made at 37° C. and a pH of 7.0.
(§6) The table below reports the composition of the assays necessary for the individual tests. In individual tests, the semimicro assay was used, but this was reduced in some cases to a micro assay.
(§7) C) Before the inhibitor strengths were determined, for each enzyme-substrate combination basic kinetics were established in which not only the Michaelis-Menten constant (KM [mmol/l]) but also the maximum velocity (Vmax [μmol/mLmin]) were determined. For the enzyme/substrate combination SI/sucrose, a substrate concentration of from 1.24 to 124 mmol/L was used, for the enzyme/substrate combination SI/maltose a substrate concentration of from 0.62 to 24.8 mmol/L was used, for the enzyme/substrate combination SI/isomaltose a substrate concentration of from 3.6 to 57.6 mmol/L was used and for the enzyme/substrate combination GM/maltose a substrate concentration of from 0.31 to 12.4 mmol/L was used in the assay.
(§8) The level of the inhibitor concentrations used depended on the strength of the resulting inhibition. For each of the enzyme-substrate combinations, 3 to 4 sets of kinetics at different inhibitor concentrations were established. The inhibitor constants Ki and Kii were, unless stated otherwise, determined from secondary Lineweaver-Burk plots.

sucrase/isomaltase (SI) [5] = biological target: T1, sucrase/isomaltase (SI); test: Inhibition of SI-catalyzed hydrolysis of maltose (SI/maltose), coupled HK/G6PDH optical test
Source text: as §2, with “A) The activity of the SI enzyme complex was studied using three different substrates, that is to say sucrose, maltose and isomaltose. The maltase” for “The maltase”

sucrase/isomaltase (SI) [6] = biological target: T1, sucrase/isomaltase (SI); test: Inhibition of SI-catalyzed hydrolysis of sucrose (SI/sucrose), coupled HK/G6PDH optical test
Source text: as §3, §4, §5, §6, §7, §8

[7] = cleavage product detected: glucose
[8] = cleavage product detected: fructose
[9] = SI/maltose, secondary Lineweaver-Burk plots, read-out: Ki
[10] = SI/maltose, secondary Lineweaver-Burk plots, read-out: Kii
[11] = SI/sucrose, secondary Lineweaver-Burk plots, read-out: Ki
[12] = SI/sucrose, secondary Lineweaver-Burk plots, read-out: Kii

Compound	SI conversion rate (sucrase/isomaltase (SI) [1]; [7]) [%]	GM conversion rate [2, 7] [%]	SI conversion rate (sucrase/isomaltase (SI) [1]; [8]) [%]	KM/Ki (sucrase/isomaltase (SI) [4])	Type (of inhibition) (sucrase/isomaltase (SI) [4])	inhibitor strength (in words) (sucrase/isomaltase (SI) [4])	GM conversion rate [2, 8] [%]	KM/Ki [3]	inhibitor strength (in words) [3]	Ki ([3]; read-out: Ki) [mM]	Ki ([3]; read-out: Kii) [mM]	KM/Ki (sucrase/isomaltase (SI) [5]; SI/maltose)	inhibitor strength (in words) (sucrase/isomaltase (SI) [5]; SI/maltose)	KM/Ki (sucrase/isomaltase (SI) [6]; SI/sucrose)	inhibitor strength (in words) (sucrase/isomaltase (SI) [6]; SI/sucrose)	Ki (sucrase/isomaltase (SI) [5]; [9]) [mM]	Ki (sucrase/isomaltase (SI) [5]; [10]) [mM]	Ki (sucrase/isomaltase (SI) [6]; [11]) [mM]	Ki (sucrase/isomaltase (SI) [6]; [12]) [mM]	other results
N[C@H]1[C@H](O)[C@@H](CO)O[C@@]1(CO)O[C@H]1O[C@H](CO)[C@@H](O)[C@H](O)[C@H]1O [3′-aminosucrose]			0	8.2	K	strong to very strong	0	3.1	to a high percentage even at very low concentrations; also recorded: strong to very strong	1	17	2113	to a high percentage even at very low concentrations; also recorded: strong to very strong	11530	to a high percentage even at very low concentrations; also recorded: strong to very strong					enzymatic activity (sucrase/isomaltase (SI) [5]; SI/maltose, inhibitor concentration of 1 mmol/L): no longer measurable; Ki (sucrase/isomaltase (SI) [5]; SI/maltose, with preincubation, Dixon evaluation, read-out: Ki): 0.0046 mM; Ki (sucrase/isomaltase (SI) [5]; SI/maltose, with preincubation, Henderson evaluation, read-out: Ki): 0.0046 mM; Ki (sucrase/isomaltase (SI) [5]; SI/maltose, without preincubation, Dixon evaluation, read-out: Ki): 0.0054 mM; Ki (sucrase/isomaltase (SI) [5]; SI/maltose, without preincubation, Henderson evaluation, read-out: Ki): 0.0052 mM; maltose hydrolysis inhibited (sucrase/isomaltase (SI) [5]; concentration of 5 μmol/mL): about 50%; enzymatic activity (sucrase/isomaltase (SI) [6]; SI/sucrose, inhibitor concentration of 1 mmol/L): no longer measurable; Ki (sucrase/isomaltase (SI) [6]; SI/sucrose, with preincubation, Dixon evaluation, read-out: Ki): 0.0065 mM; Ki (sucrase/isomaltase (SI) [6]; SI/sucrose, with preincubation, Henderson evaluation, read-out: Ki): 0.0063 mM; Ki (sucrase/isomaltase (SI) [6]; SI/sucrose, without preincubation, Dixon evaluation, read-out: Ki): 0.0052 mM; Ki (sucrase/isomaltase (SI) [6]; SI/sucrose, without preincubation, Henderson evaluation, read-out: Ki): 0.005 mM; sucrose hydrolysis inhibited (sucrase/isomaltase (SI) [6]; concentration of 5 μmol/mL): about 30%
O=C(O)C1OC(OCC2OC(O)(CO)C(O)C2O)C(O)C(O)C1O (centres unmarked) [Pal-C6′S, palatinose-C6′-acid]			0.4	3.7	K	strong to very strong	0.1	0.22	inhibitory action	20		0.7	inhibitory action	8.4	strong to very strong	16	31	7	8	
OC[C@H]1O[C@H](OC[C@H]2OC(O)[C@H](O)[C@@H](O)[C@@H]2O)[C@H](O)[C@@H](O)[C@@H]1O (some centres unmarked) [isomaltose, reference compound]																				Km (sucrase/isomaltase (SI) [4]; SI/isomaltose basic kinetics, substrate, mean, 37° C., pH 7.0): 73.9 ± 6.8 mM; Vmax (sucrase/isomaltase (SI) [4]; SI/isomaltose basic kinetics, enzyme solution with maltase activity of 5 U/mL): 3.07 ± 0.18 U/mL
sucrose-C6-acid [Suc-C6S]	2	0		1	NK	strong to very strong					4	0.26	inhibitory action	6.2	strong to very strong	43	5	9	9	Ki (sucrase/isomaltase (SI) [4]; read-out: Ki): 73 mM; Ki (sucrase/isomaltase (SI) [4]; read-out: Kii): 3 mM

The next lines start with results.

SI conversion rate (sucrase/isomaltase (SI) [1]; [7]) [%]	Compound	GM conversion rate [2, 7] [%]	SI conversion rate (sucrase/isomaltase (SI) [1]; [8]) [%]	KM/Ki (sucrase/isomaltase (SI) [4])	Type (of inhibition) (sucrase/isomaltase (SI) [4])	inhibitor strength (in words) (sucrase/isomaltase (SI) [4])	GM conversion rate [2, 8] [%]	KM/Ki [3]	inhibitor strength (in words) [3]	Ki ([3]; read-out: Ki) [mM]	Ki ([3]; read-out: Kii) [mM]	KM/Ki (sucrase/isomaltase (SI) [5]; SI/maltose)	inhibitor strength (in words) (sucrase/isomaltase (SI) [5]; SI/maltose)	KM/Ki (sucrase/isomaltase (SI) [6]; SI/sucrose)	inhibitor strength (in words) (sucrase/isomaltase (SI) [6]; SI/sucrose)	Ki (sucrase/isomaltase (SI) [5]; [9]) [mM]	Ki (sucrase/isomaltase (SI) [5]; [10]) [mM]	Ki (sucrase/isomaltase (SI) [6]; [11]) [mM]	Ki (sucrase/isomaltase (SI) [6]; [12]) [mM]	other results
100	OC[C@H]1O[C@H](O[C@H]2[C@H](O)[C@@H](O)C(O)O[C@@H]2CO)[C@H](O)[C@@H](O)[C@@H]1O (mixture of isomers) [Maltose, reference compound]	95.7																		Km ([3]; GM/maltose basic kinetics, substrate, mean, 37° C., pH 7.0): 4.2 ± 1 mM; Vmax ([3]; GM/maltose basic kinetics, enzyme solution with maltase activity of 5 U/mL): 4.8 ± 0.7 U/mL
85	OC[C@H]1O[C@@](CO)(O[C@H]2O[C@H](CO)[C@@H](O)[C@H](O)[C@H]2O)[C@@H](O)[C@@H]1O [Sucrose, reference compound]		87																	
